SMILES strings stand for the structures.

In ChEMBL document CHEMBL1165899, “Synthesis and antitumor evaluation of novel cyclic arylsulfonylureas: ADME-T and pharmacophore prediction” (2010) one finds inhibition of growth data, which are given here for twelve compounds.

Holding throughout (assay type): functional
The subject of experiment [1] is SK-MEL-2. In words: Growth inhibition of human SK-MEL-2 cells at 10 uM after 48 hrs by sulforhodamine B assay relative to control. The note with it: SK-MEL-2, 48 h, read-out: GI.
The subject of experiment [2] is IGROV-1. The experiment is described as follows: Growth inhibition of human IGROV1 cells at 10 uM after 48 hrs by sulforhodamine B assay relative to control. Conditions: IGROV-1, 48 h, read-out: GI. (In general: Sulforhodamine B stains cellular protein and so reports cell mass.)
The test system of experiment [3] is RXF 393. The experiment is described as follows: Growth inhibition of human RXF393 cells at 10 uM after 48 hrs by sulforhodamine B assay relative to control. The note with it: RXF 393, 48 h, read-out: GI.
In experiment [4] the test system is OVCAR-8. The experiment is described as follows: Growth inhibition of human OVCAR8 cells at 10 uM after 48 hrs by sulforhodamine B assay relative to control. Conditions: OVCAR-8, 48 h, read-out: GI.
The test system of experiment [5] is M14. In words: Growth inhibition of human M14 cells at 10 uM after 48 hrs by sulforhodamine B assay relative to control. The note with it: M14, 48 h, read-out: GI.

`COc1ccc(-n2c(=O)c3ccccc3n(S(=O)(=O)c3ccccc3)c2=O)cc1`: the inhibition of growth at 10 µM in experiment [1] is -43.2%; in experiment [2] it was 63.2%; in experiment [3], 43%; in experiment [4], 26%; in experiment [5], 56.5%.

With `O=C1N/C(=C\c2ccccc2)C(=O)N1S(=O)(=O)c1ccc(Cl)cc1`, the inhibition of growth at 10 µM in experiment [1] was 11.7%; in experiment [2] it was -9.05%; in experiment [3] it was 0.92%; in experiment [4], 3.88%.

As to `COc1ccc(/C=C2\NC(=O)N(S(=O)(=O)c3ccccc3)C2=O)cc1`, the inhibition of growth at 10 µM in experiment [1] turned out to be 11.6%; in experiment [2], 115%; in experiment [3], 96.5%; in experiment [4], 5.23%.

On to `O=C1N/C(=C\c2ccc(Cl)cc2)C(=O)N1S(=O)(=O)c1ccc(Cl)cc1`, for which the inhibition of growth at 10 µM in experiment [1] is 17.6%; in experiment [2], 81%; in experiment [3], 76.2%; in experiment [4] it was 4.01%; in experiment [5], -20.1%.

For `COc1ccc(N2C(=O)CC(=O)N(S(=O)(=O)c3ccc(Cl)cc3)C2=O)cc1`, the inhibition of growth at 10 µM in experiment [1] is 61.1%; in experiment [2], 76.5%; in experiment [4], 42.4%; in experiment [5] it was -3.04%.

As for `CN(C)c1ccc(/C=C2\NC(=O)N(S(=O)(=O)c3ccccc3)C2=O)cc1`, the inhibition of growth at 10 µM was 3.98% in experiment [1]; 107% in experiment [2]; 80.3% in experiment [3]; 1.17% in experiment [4]; -2.88% in experiment [5].

As for `O=c1c2ccccc2n(S(=O)(=O)c2ccc(Cl)cc2)c(=O)n1-c1ccccc1`, the inhibition of growth at 10 µM is 79.3% in experiment [1], 91.4% in experiment [2], 40.9% in experiment [4] and 17.4% in experiment [5].

On to `COc1ccc(/C=C2\NC(=O)N(S(=O)(=O)c3ccc(Cl)cc3)C2=O)cc1`, for which the inhibition of growth at 10 µM was 8.98% in experiment [1], -1.97% in experiment [2], 84.1% in experiment [3] and -1.23% in experiment [4].

On to `O=c1c2ccccc2n(S(=O)(=O)c2ccccc2)c(=O)n1-c1ccccc1`, for which the inhibition of growth at 10 µM was found to be 70.4% in experiment [1], 86.8% in experiment [2], 33.2% in experiment [4] and 1.02% in experiment [5].

As for `Cc1ccc(S(=O)(=O)N2C(=O)CC(=O)N(c3ccc(Cl)cc3)C2=O)cc1`, the inhibition of growth at 10 µM was 73.9% in experiment [1], 65.6% in experiment [2], 54.1% in experiment [4] and -7.35% in experiment [5].

On to `O=C1N/C(=C\c2ccc(Cl)cc2)C(=O)N1S(=O)(=O)c1ccccc1`, for which the inhibition of growth at 10 µM was 19.9% in experiment [1], 1.13% in experiment [2], 7.42% in experiment [3] and 6.79% in experiment [4].

Turning to `O=C1CC(=O)N(S(=O)(=O)c2ccc(Cl)cc2)C(=O)N1c1ccccc1`, the inhibition of growth at 10 µM in experiment [1] stood at 65.1%; in experiment [2], 34.1%; in experiment [4], 58.9%; in experiment [5], 8.19%.
